# Measured values reported in ChEMBL document CHEMBL1130875, “Conformationally constrained analogues of diacylglycerol (DAG). 14. Dissection of the roles of the sn-1 and sn-2 carbonyls in DAG mimetics by isopharmacophore replacement” (Bioorg Med Chem Lett, 1998).
# Biological target: Protein kinase C alpha type (Homo sapiens, UniProt P17252)
# Assay: Displacement of [20-3H]phorbol-12,13-dibutyrate from a recombinant PK-C alpha
row,Ki,Compound
1,823 nM,CCCCCCCCCCCCC/C=C1\CC(CO)(COS(C)(=O)=O)OC1=O (centres undefined)
2,90.7 nM,CCCCCCCCCCCCCCS(=O)(=O)OCC1(CO)CCC(=O)O1 (centres undefined)
3,1040 nM,CCCCCCCCCCCCCC(=O)OCC1(CO)CCS(=O)(=O)O1 (centres undefined)
4,320 nM,CCCCCCCCCCCCC/C=C1\CC(CO)(COC(C)=O)OS1(=O)=O (centres undefined)
